Earlier results in patent publication EP1526849B1 (A. MENARINI INDUSTRIE FARMACEUTICHE RIUNITE S.R.L., priority 2002, dated 2004).

Details: gel with benzofenone-3 1%; 8 hours solar light; JP60155111 example 1

percentage of ketoprofen not broken down: 90%
Structure (SMILES): CC(C(=O)O)c1cccc(C(=O)c2ccccc2)c1 (stereo not shown) [ketoprofen]
